Experimental data reported in the NIST ThermoML archive (doi:10.1016/j.tca.2011.02.027).
Numbers after ± are expanded uncertainties.

Test: molar heat capacity at constant pressure; xn = mol fraction of the nth substance listed
Details: 101.3 kPa, Liquid, Large sample (1 g) DSC

CCCCn1cc[n+](C)c1.[Br-] [1-butyl-3-methylimidazolium bromide] + O
molar heat capacity at constant pressure (303.2 K, x1 = 0.1): 102.2 ± 4.3 J/K/mol
molar heat capacity at constant pressure (303.2 K, x1 = 0.2): 123.4 ± 5.2 J/K/mol
molar heat capacity at constant pressure (303.2 K, x1 = 0.3): 144.5 ± 6.1 J/K/mol
molar heat capacity at constant pressure (303.2 K, x1 = 0.4): 165 ± 7 J/K/mol
molar heat capacity at constant pressure (303.2 K, x1 = 0.5): 186.7 ± 7.9 J/K/mol
molar heat capacity at constant pressure (303.2 K, x1 = 0.6): 209.6 ± 8.9 J/K/mol
molar heat capacity at constant pressure (308.2 K, x1 = 0.1): 102.5 ± 4.3 J/K/mol
molar heat capacity at constant pressure (308.2 K, x1 = 0.2): 124.1 ± 5.3 J/K/mol
molar heat capacity at constant pressure (308.2 K, x1 = 0.3): 145.4 ± 6.2 J/K/mol
molar heat capacity at constant pressure (308.2 K, x1 = 0.4): 166.1 ± 7 J/K/mol
molar heat capacity at constant pressure (308.2 K, x1 = 0.5): 188 ± 8 J/K/mol
molar heat capacity at constant pressure (308.2 K, x1 = 0.6): 211.2 ± 9 J/K/mol
molar heat capacity at constant pressure (313.2 K, x1 = 0.1): 103 ± 4.4 J/K/mol
molar heat capacity at constant pressure (313.2 K, x1 = 0.2): 124.9 ± 5.3 J/K/mol
molar heat capacity at constant pressure (313.2 K, x1 = 0.3): 146.3 ± 6.2 J/K/mol
molar heat capacity at constant pressure (313.2 K, x1 = 0.4): 167.1 ± 7.1 J/K/mol
molar heat capacity at constant pressure (313.2 K, x1 = 0.5): 189.2 ± 8 J/K/mol
molar heat capacity at constant pressure (313.2 K, x1 = 0.6): 212.9 ± 9 J/K/mol
molar heat capacity at constant pressure (318.2 K, x1 = 0.1): 103.5 ± 4.4 J/K/mol
molar heat capacity at constant pressure (318.2 K, x1 = 0.2): 125.8 ± 5.3 J/K/mol
molar heat capacity at constant pressure (318.2 K, x1 = 0.3): 147.2 ± 6.2 J/K/mol
molar heat capacity at constant pressure (318.2 K, x1 = 0.4): 168.1 ± 7.1 J/K/mol
molar heat capacity at constant pressure (318.2 K, x1 = 0.5): 190.7 ± 8.1 J/K/mol
molar heat capacity at constant pressure (318.2 K, x1 = 0.6): 214.5 ± 9.1 J/K/mol
molar heat capacity at constant pressure (323.2 K, x1 = 0.1): 104 ± 4.4 J/K/mol
molar heat capacity at constant pressure (323.2 K, x1 = 0.2): 126.6 ± 5.4 J/K/mol
molar heat capacity at constant pressure (323.2 K, x1 = 0.3): 148.2 ± 6.3 J/K/mol
molar heat capacity at constant pressure (323.2 K, x1 = 0.4): 169.2 ± 7.2 J/K/mol
molar heat capacity at constant pressure (323.2 K, x1 = 0.5): 191.8 ± 8.1 J/K/mol
molar heat capacity at constant pressure (323.2 K, x1 = 0.6): 216.2 ± 9.2 J/K/mol
molar heat capacity at constant pressure (328.2 K, x1 = 0.1): 104.5 ± 4.4 J/K/mol
molar heat capacity at constant pressure (328.2 K, x1 = 0.2): 127.5 ± 5.4 J/K/mol
molar heat capacity at constant pressure (328.2 K, x1 = 0.3): 149.2 ± 6.3 J/K/mol
molar heat capacity at constant pressure (328.2 K, x1 = 0.4): 170.4 ± 7.2 J/K/mol
molar heat capacity at constant pressure (328.2 K, x1 = 0.5): 193.3 ± 8.2 J/K/mol
molar heat capacity at constant pressure (328.2 K, x1 = 0.6): 217.9 ± 9.2 J/K/mol
molar heat capacity at constant pressure (333.2 K, x1 = 0.1): 104.8 ± 4.4 J/K/mol
molar heat capacity at constant pressure (333.2 K, x1 = 0.2): 128.3 ± 5.4 J/K/mol
molar heat capacity at constant pressure (333.2 K, x1 = 0.3): 150.1 ± 6.4 J/K/mol
molar heat capacity at constant pressure (333.2 K, x1 = 0.4): 171.6 ± 7.3 J/K/mol
molar heat capacity at constant pressure (333.2 K, x1 = 0.5): 194.6 ± 8.3 J/K/mol
molar heat capacity at constant pressure (333.2 K, x1 = 0.6): 219.5 ± 9.3 J/K/mol
molar heat capacity at constant pressure (338.2 K, x1 = 0.1): 105.4 ± 4.5 J/K/mol
molar heat capacity at constant pressure (338.2 K, x1 = 0.2): 129.2 ± 5.5 J/K/mol
molar heat capacity at constant pressure (338.2 K, x1 = 0.3): 151.1 ± 6.4 J/K/mol
molar heat capacity at constant pressure (338.2 K, x1 = 0.4): 172.9 ± 7.3 J/K/mol
molar heat capacity at constant pressure (338.2 K, x1 = 0.5): 196.1 ± 8.3 J/K/mol
molar heat capacity at constant pressure (338.2 K, x1 = 0.6): 221.3 ± 9.4 J/K/mol
molar heat capacity at constant pressure (343.2 K, x1 = 0.1): 105.8 ± 4.5 J/K/mol
molar heat capacity at constant pressure (343.2 K, x1 = 0.2): 130 ± 5.5 J/K/mol
molar heat capacity at constant pressure (343.2 K, x1 = 0.3): 152.1 ± 6.5 J/K/mol
molar heat capacity at constant pressure (343.2 K, x1 = 0.4): 173.9 ± 7.4 J/K/mol
molar heat capacity at constant pressure (343.2 K, x1 = 0.5): 197.3 ± 8.4 J/K/mol
molar heat capacity at constant pressure (343.2 K, x1 = 0.6): 223.1 ± 9.5 J/K/mol
molar heat capacity at constant pressure (348.2 K, x1 = 0.1): 106.3 ± 4.5 J/K/mol
molar heat capacity at constant pressure (348.2 K, x1 = 0.2): 131.1 ± 5.6 J/K/mol
molar heat capacity at constant pressure (348.2 K, x1 = 0.3): 153.1 ± 6.5 J/K/mol
molar heat capacity at constant pressure (348.2 K, x1 = 0.4): 175.2 ± 7.4 J/K/mol
molar heat capacity at constant pressure (348.2 K, x1 = 0.5): 198.6 ± 8.4 J/K/mol
molar heat capacity at constant pressure (348.2 K, x1 = 0.6): 224.9 ± 9.5 J/K/mol
molar heat capacity at constant pressure (353.2 K, x1 = 0.1): 106.8 ± 4.5 J/K/mol
molar heat capacity at constant pressure (353.2 K, x1 = 0.2): 131.9 ± 5.6 J/K/mol
molar heat capacity at constant pressure (353.2 K, x1 = 0.3): 154.1 ± 6.5 J/K/mol
molar heat capacity at constant pressure (353.2 K, x1 = 0.4): 176.2 ± 7.5 J/K/mol
molar heat capacity at constant pressure (353.2 K, x1 = 0.5): 200 ± 8.5 J/K/mol
molar heat capacity at constant pressure (353.2 K, x1 = 0.6): 226.5 ± 9.6 J/K/mol
molar heat capacity at constant pressure (353.2 K, x1 = 1): 334.8 ± 14 J/K/mol
molar heat capacity at constant pressure (358.2 K, x1 = 1): 338.1 ± 14 J/K/mol
molar heat capacity at constant pressure (363.2 K, x1 = 1): 341.1 ± 14 J/K/mol
molar heat capacity at constant pressure (368.2 K, x1 = 1): 344.6 ± 15 J/K/mol
molar heat capacity at constant pressure (373.2 K, x1 = 1): 347.5 ± 15 J/K/mol
molar heat capacity at constant pressure (378.2 K, x1 = 1): 350.6 ± 15 J/K/mol
molar heat capacity at constant pressure (383.2 K, x1 = 1): 354.1 ± 15 J/K/mol
molar heat capacity at constant pressure (388.2 K, x1 = 1): 356.7 ± 15 J/K/mol
molar heat capacity at constant pressure (393.2 K, x1 = 1): 359.9 ± 15 J/K/mol
molar heat capacity at constant pressure (398.2 K, x1 = 1): 363.4 ± 15 J/K/mol
molar heat capacity at constant pressure (403.2 K, x1 = 1): 366.4 ± 16 J/K/mol
